For 8 compounds, TGI and GI50 results are on record in PubChem BioAssay (NCI).

Among the test systems are MDA-MB-231 breast; RPMI-8226 leukemia; LOX IMVI melanoma; SK-MEL-5 melanoma; SNB-19 CNS; K-562 leukemia; UO-31 renal; CCRF-CEM leukemia; SN12C renal; HT29 colon; MOLT-4 leukemia; T-47D breast; 786-0 renal; SK-OV-3 ovarian; HCC-2998 colon; OVCAR-8 ovarian; HOP-62 NSCLC.
Holding throughout (assay): DTP human tumour cell line panel, 48 h

Each structure is given as a SMILES string.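 Exposure lasted 48 hours, with cells grown in 96-well plates and compounds tested at five concentrations. Here, GI50 denotes the concentration required for 50% inhibition of growth. Definition used: TGI = concentration required for complete inhibition of growth.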

A word on the TGI: it is the concentration giving total growth inhibition. Consider `Cc1cc(C)n2nc3nc(N)c(C#N)c(-c4ccccc4)c3c2n1`, for which the TGI with MDA-MB-231 breast, with RPMI-8226 leukemia, with LOX IMVI melanoma, in the experiment with SK-MEL-5 melanoma, in the experiment on SNB-19 CNS and with K-562 leukemia was over 100 µM throughout. The TGI with UO-31 renal, in the experiment with CCRF-CEM leukemia, in the experiment on SN12C renal, in the experiment with HT29 colon, with MOLT-4 leukemia and in the experiment with T-47D breast was over 100 µM throughout. For the same compound, the concentration for total growth inhibition (TGI) in the experiment on 786-0 renal, with SK-OV-3 ovarian, in the experiment on HCC-2998 colon, with OVCAR-8 ovarian and in the experiment on HOP-62 NSCLC was over 100 µM each time.

For the compound `CCOC(=O)c1c(-c2ccc(OC)cc2)c(C#N)c(=S)n(C2OC(COC(C)=O)C(OC(C)=O)C(OC(C)=O)C2OC(C)=O)c1-c1ccccc1` (stereo not drawn), the TGI with MDA-MB-231 breast, in the experiment on RPMI-8226 leukemia, in the experiment on LOX IMVI melanoma, with SK-MEL-5 melanoma, in the experiment on SNB-19 CNS and with K-562 leukemia was over 100 µM each time. The TGI in the experiment on UO-31 renal, in the experiment on CCRF-CEM leukemia, in the experiment with SN12C renal, in the experiment with HT29 colon, with MOLT-4 leukemia and with T-47D breast was over 100 µM in each case. Also, the TGI in the experiment with 786-0 renal, with SK-OV-3 ovarian, in the experiment with HCC-2998 colon and with HOP-62 NSCLC was over 100 µM throughout.

With `CS(=O)(=O)O[C@H]1CN2C[C@@H](O)[C@@H](O)[C@H]2[C@H]1CO`, the TGI in the experiment with MDA-MB-231 breast, in the experiment on RPMI-8226 leukemia, in the experiment on LOX IMVI melanoma, in the experiment with SK-MEL-5 melanoma, with SNB-19 CNS and in the experiment with K-562 leukemia was over 100 µM each time. Moreover, the concentration for total growth inhibition (TGI) in the experiment on UO-31 renal, in the experiment with CCRF-CEM leukemia, with HT29 colon, in the experiment with MOLT-4 leukemia, in the experiment on T-47D breast and in the experiment with 786-0 renal was over 100 µM throughout. In addition, the TGI in the experiment on SK-OV-3 ovarian, in the experiment with HCC-2998 colon, in the experiment on OVCAR-8 ovarian and in the experiment on HOP-62 NSCLC was over 100 µM in each case.

With `CCCCN(CCCC)CC(O)c1cc(-c2ccc(C(F)(F)F)cc2)nc(-c2ccc(C(F)(F)F)cc2)c1` (stereo not drawn), the TGI in the experiment with MDA-MB-231 breast, with RPMI-8226 leukemia, in the experiment on LOX IMVI melanoma, in the experiment on SNB-19 CNS, in the experiment on K-562 leukemia and in the experiment with UO-31 renal was over 100 µM in each case. The total growth inhibition concentration (TGI) in the experiment with CCRF-CEM leukemia, in the experiment on SN12C renal, with HT29 colon, with MOLT-4 leukemia, in the experiment with T-47D breast and in the experiment with 786-0 renal was over 100 µM throughout. Further, the TGI is over 100 µM in the experiment on SK-OV-3 ovarian, 65.6 µM with HCC-2998 colon, over 100 µM in the experiment on OVCAR-8 ovarian and over 100 µM in the experiment on HOP-62 NSCLC.

In the case of `OC1[C@@H]2[C@@H](O)[C@H](O)[C@@H](O)N2C[C@@H]1O` (stereo partly drawn), the TGI was over 100 µM in the experiment on MDA-MB-231 breast; over 23.5 µM in the experiment with RPMI-8226 leukemia; over 100 µM in the experiment with LOX IMVI melanoma; over 100 µM in the experiment on SK-MEL-5 melanoma; over 100 µM in the experiment on SNB-19 CNS; over 100 µM with K-562 leukemia. In addition, the TGI in the experiment on UO-31 renal, in the experiment on CCRF-CEM leukemia, with SN12C renal, with HT29 colon, in the experiment on MOLT-4 leukemia and in the experiment with T-47D breast was over 100 µM each time. Also, the TGI with 786-0 renal, in the experiment with SK-OV-3 ovarian, in the experiment on HCC-2998 colon, with OVCAR-8 ovarian and in the experiment with HOP-62 NSCLC was over 100 µM throughout.

Broadly, the GI50 is the concentration at which growth is held to half of that of the control. Take `Oc1cn(-c2ccc(Cl)cc2)nc1-c1nnc(-c2ccccc2)o1`: the TGI is 36.1 µM in the experiment with MDA-MB-231 breast; 31.9 µM with RPMI-8226 leukemia; 20.5 µM in the experiment on LOX IMVI melanoma; 5.13 µM with SK-MEL-5 melanoma; over 68.5 µM in the experiment on SNB-19 CNS; 19.6 µM with K-562 leukemia. In addition, the TGI in the experiment on UO-31 renal is 31.9 µM; in the experiment on CCRF-CEM leukemia it was over 100 µM; in the experiment with SN12C renal it was over 57 µM; with HT29 colon it was 27.6 µM; with MOLT-4 leukemia, 19.9 µM; in the experiment on T-47D breast, over 92.7 µM. The TGI is 12.2 µM in the experiment on 786-0 renal; over 74 µM in the experiment with SK-OV-3 ovarian; 5.91 µM in the experiment on HCC-2998 colon; 14.2 µM in the experiment on OVCAR-8 ovarian; 4.64 µM in the experiment on HOP-62 NSCLC. The GI50 in the experiment on LOX IMVI melanoma was 1630 nM; with CCRF-CEM leukemia it was 2460 nM; in the experiment on HCC-2998 colon it was 739 nM.

Turning to `CN(C(=O)C1=CCC2(CC1)OCCO2)c1ccccc1OS(=O)(=O)C(F)(F)F`, the TGI in the experiment with MDA-MB-231 breast, in the experiment with RPMI-8226 leukemia, in the experiment on LOX IMVI melanoma, in the experiment on SK-MEL-5 melanoma, in the experiment on SNB-19 CNS and in the experiment with K-562 leukemia was over 100 µM in each case. Also, the TGI in the experiment with UO-31 renal, in the experiment on CCRF-CEM leukemia, in the experiment with SN12C renal, in the experiment with MOLT-4 leukemia, with T-47D breast and with 786-0 renal was over 100 µM throughout. For the same compound, the TGI in the experiment on SK-OV-3 ovarian, with HCC-2998 colon, in the experiment with OVCAR-8 ovarian and with HOP-62 NSCLC was over 100 µM throughout.

As for `COC(=O)c1cc2c3c(ccc2[nH]1)N(C(=O)c1cc2cc(OC)c(OC)c(OC)c2[nH]1)CC3CCl` (stereo not drawn), the TGI in the experiment with MDA-MB-231 breast is over 100 µM; in the experiment on RPMI-8226 leukemia, over 21.5 µM; in the experiment on LOX IMVI melanoma, over 100 µM; in the experiment with SK-MEL-5 melanoma, over 100 µM; in the experiment with SNB-19 CNS, over 100 µM; in the experiment with UO-31 renal it was over 100 µM. For the same compound, the concentration for total growth inhibition (TGI) is over 100 µM in the experiment with CCRF-CEM leukemia; over 75.8 µM in the experiment with HT29 colon; over 100 µM in the experiment on MOLT-4 leukemia; over 100 µM with T-47D breast; over 52.6 µM in the experiment on 786-0 renal; over 100 µM in the experiment on SK-OV-3 ovarian. Moreover, the values for the TGI in the experiment with HCC-2998 colon, in the experiment with OVCAR-8 ovarian and with HOP-62 NSCLC were over 100 µM, over 100 µM and over 72 µM, respectively.
